# Test results as given in patent US20230414511A1, “COMPOSITIONS AND METHODS FOR DEEP DERMAL DRUG DELIVERY” (ARCUTIS BIOTHERAPEUTICS, INC., priority 2020, published 2023).
# Columns and labels:
# [1] = Particle size distribution of SHR0302 by laser diffraction (Malvern); type: physicochemical; settings: SHR0302 used in Example 1, FIG. 1
# Source text: In the pharmaceutical compositions of the present invention, the active ingredient is present as small particles. Particle size of the drug can be assessed using laser diffraction methods. Laser diffraction is recognized by standards and guidance agencies including ISO and ASTM and is widely used to determine particle size distributions. In conducting the assessment, the sample is passed through a laser beam, which results in laser light scattered at a range of angles. Detectors placed at fixed angles measure the intensity of light scattered at that position. A mathematical model is then applied to generate a particle size distribution. The particle size values reported herein are determined by using a liquid or wet dispersion method.
# In particle size determinations, the median value is defined as the value where half of the population resides above this point, and half resides below this point. For particle size distributions the median is called the D50. The D50 is the size that splits the distribution with half above and half below this diameter. The distribution width may also be characterized by citing one, two or three values on the x-axis, typically some combination of the D10, D50, and D90. The D50, the median, has been defined above as the diameter where half of the population lies below this value. Similarly, 90 percent of the distribution lies below the D90, and 10 percent of the population lies below the D10.
# A pharmaceutical composition comprising 3% SHR0302 suspended in dimethicone was prepared. The primary particle size distribution of the SHR0302 is characterized by a D10 value of less than about 0.25 μm; a D50 value of less than about 0.7 μm; and a D90 value of less than about 5 μm. The pharmaceutical composition was a transparent solution due to the particles being too small to scatter visible light. A Malvern Metasizer Model 3000 using the Hydro MV dispersion unit was used to determine the particle size distribution profile of SHR0302. […]
# [2] = biological target: JAK1 (Homo sapiens, UniProt P23458); settings: cited from earlier work
# Chain of JAK1 (P23458 whole entry): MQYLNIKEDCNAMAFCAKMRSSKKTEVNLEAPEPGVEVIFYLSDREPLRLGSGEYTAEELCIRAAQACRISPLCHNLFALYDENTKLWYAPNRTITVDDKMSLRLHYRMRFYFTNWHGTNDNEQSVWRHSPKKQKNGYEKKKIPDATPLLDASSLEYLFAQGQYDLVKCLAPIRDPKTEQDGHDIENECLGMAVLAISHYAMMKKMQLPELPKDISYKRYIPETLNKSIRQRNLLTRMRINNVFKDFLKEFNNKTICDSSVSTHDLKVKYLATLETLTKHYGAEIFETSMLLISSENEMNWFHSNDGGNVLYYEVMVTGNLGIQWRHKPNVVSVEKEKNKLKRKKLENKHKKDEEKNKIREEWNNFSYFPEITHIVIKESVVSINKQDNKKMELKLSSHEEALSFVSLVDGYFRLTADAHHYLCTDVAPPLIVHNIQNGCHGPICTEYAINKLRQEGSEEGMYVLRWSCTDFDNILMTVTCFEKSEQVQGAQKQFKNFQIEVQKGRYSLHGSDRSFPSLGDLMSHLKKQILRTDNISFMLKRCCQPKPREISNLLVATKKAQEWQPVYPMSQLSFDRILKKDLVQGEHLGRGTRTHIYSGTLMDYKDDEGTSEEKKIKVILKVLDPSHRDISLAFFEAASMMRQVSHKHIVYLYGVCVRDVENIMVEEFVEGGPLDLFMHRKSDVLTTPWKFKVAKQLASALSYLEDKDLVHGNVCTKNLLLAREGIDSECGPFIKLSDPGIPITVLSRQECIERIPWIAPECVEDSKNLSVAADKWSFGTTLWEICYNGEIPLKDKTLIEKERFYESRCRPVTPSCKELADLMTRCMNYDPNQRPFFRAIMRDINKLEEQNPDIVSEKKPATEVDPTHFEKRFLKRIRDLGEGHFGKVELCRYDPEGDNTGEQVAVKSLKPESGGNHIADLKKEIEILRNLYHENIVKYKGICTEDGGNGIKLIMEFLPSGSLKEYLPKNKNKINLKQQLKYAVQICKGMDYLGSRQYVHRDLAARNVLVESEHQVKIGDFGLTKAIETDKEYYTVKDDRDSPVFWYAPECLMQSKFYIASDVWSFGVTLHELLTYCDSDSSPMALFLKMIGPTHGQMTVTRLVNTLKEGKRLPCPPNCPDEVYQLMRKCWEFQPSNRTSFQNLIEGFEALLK
# [3] = orally administrated, women; cited from earlier work
Structure (SMILES),primary particle size D10 [1],primary particle size D50 [1],primary particle size D90 [1],inhibition of JAK1 [2],efficacy in treatment of acne [3]
"COc1nsc(NC(=O)N2C[C@H]3C[C@H](N(C)c4ncnc5[nH]ccc45)C[C@H]3C2)n1 [SHR0302, (3aR,5S,6aS)-N-(3-methoxyl-1,2,4-thiadiazol-5-yl)-5-(methyl(7H-pyrrolo[2,3-d]pyrimidin-4-yl)amino)hexahydrocyclopenta[c]pyrrole-2(1H)-carboxamide]",less than 0.25 μm,less than 0.7 μm,less than 5 μm,potent,–
"CC(=O)S[C@@H]1CC2=CC(=O)CC[C@]2(C)[C@H]2CC[C@@]3(C)[C@@H](CC[C@@]34CCC(=O)O4)[C@H]12 [spironolactone, 17-hydroxy-7α-mercapto-3-oxo-17α-pregn-4-ene-21-carboxylic acid γ-lactone acetate]",–,–,–,–,efficacious
